Data reported in patent US12343326B2, “Psychoactive medicines and their use for treating psychiatric and neurological conditions and disorders” (Transcend Therapeutics, Inc., priority 2021, dated 2025).

What was measured:
[1] = system: rats with reserpine-induced pain sensitivity; experiment: Reserpine-induced fibromyalgia model, von Frey test; assay type: in vivo, rat; details: methylone 15 mg/kg IP, 30 min before testing, day 4 after reserpine
Procedure: Reserpine (1 mg/kg/s.c.) is administered for 3 days to mimic chronic widespread pain and complex symptoms.
In this Example, male Sprague Dawley rats are tested in a behavioral model of FMA based on the protocol from Nakagura et al. (2009) Pain 146:26. This model uses three daily doses of reserpine (1 mg/kg, SC) or 0.5% acetic acid vehicle to reduce pain thresholds (i.e., increase pain perception) in the Von Frey Test (vFT, procedure outlined below).
Von Frey Test (vFT) procedure: Increasing pain thresholds in this test are consistent with a reduction in pain perception. Prior to the start of dosing, rats are tested for their baseline mechanical pain threshold. For von Frey measurements, animals are placed into wire bottom cubicles with opaque Plexiglas walls, allowing access to the underside of their paws. Animals are habituated to this environment for at least 30 minutes before the start of the von Frey filament application. Static allodynia is measured using Semmes-Weinstein von Frey filaments (Stoelting, Wood Dale, IL). Mechanical allodynia is tested by touching the plantar surface of the animals' left and right hind paws with von Frey filaments which deliver a calibrated amount of force. Each von Frey filament is presented perpendicularly to the plantar surface for approximately 6 seconds of constant application in either ascending or descending strength in a modified up-and-down method (Chaplan et al. (1994) J Neurosci. Meth. 53:55). Stimulation is presented at intervals of several seconds, allowing for apparent resolution of any behavioral responses to previous stimuli. A positive response is noted if the paw is sharply withdrawn. Flinching immediately upon removal of the hair is also considered a positive response. […]
VonFrey measurements: Animals were placed into wire bottom cubicles with opaque Plexiglas walls, allowing access to the underside of their paws. […] Static allodynia was measured using Semmes-Weinstein von Frey filaments (Stoelting, Wood Dale, IL). […] The average hindpaw thresholds were determined 60-min post-injection. […]

168 GPCRs [2] = target: 168 GPCRs (Homo sapiens, UniProt P51684); experiment: β-arrestin based GPCR screen (PathHunter / GPCRmax), agonist mode; assay type: cell-based; set-up: host or cells: PathHunter cell lines; details: CCR6, Agonist
Procedure: (§1) For agonist determination, cells were incubated with sample to induce response. […] Vehicle concentration was 1%.

168 GPCRs [3] = target: T1, 168 GPCRs (Homo sapiens, UniProt Q96RI0); experiment: as above; assay type: cell-based; set-up: host or cells: PathHunter cell lines
T1 sequence (Q96RI0 18-385): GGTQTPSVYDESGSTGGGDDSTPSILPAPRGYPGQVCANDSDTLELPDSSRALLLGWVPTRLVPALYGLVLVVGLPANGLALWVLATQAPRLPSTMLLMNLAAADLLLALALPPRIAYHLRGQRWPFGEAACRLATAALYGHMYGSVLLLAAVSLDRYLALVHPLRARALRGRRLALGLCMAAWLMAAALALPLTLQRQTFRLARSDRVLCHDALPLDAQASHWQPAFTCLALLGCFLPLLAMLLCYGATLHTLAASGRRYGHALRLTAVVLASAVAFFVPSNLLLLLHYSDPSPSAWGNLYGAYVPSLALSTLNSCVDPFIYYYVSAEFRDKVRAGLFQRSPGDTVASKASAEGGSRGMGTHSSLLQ
Procedure: as §1

168 GPCRs [4] = target: 168 GPCRs (Homo sapiens, UniProt P32745); experiment: as above; assay type: cell-based; set-up: host or cells: PathHunter cell lines
Procedure: as §1

168 GPCRs [5] = target: 168 GPCRs (Homo sapiens, UniProt P21462); experiment: as above; assay type: cell-based; set-up: host or cells: PathHunter cell lines
Procedure: as §1

168 GPCRs [6] = target: T2, 168 GPCRs (Homo sapiens, UniProt P24530); experiment: as above; assay type: cell-based; set-up: host or cells: PathHunter cell lines; details: EDNRB
T2 sequence (P24530 27-442): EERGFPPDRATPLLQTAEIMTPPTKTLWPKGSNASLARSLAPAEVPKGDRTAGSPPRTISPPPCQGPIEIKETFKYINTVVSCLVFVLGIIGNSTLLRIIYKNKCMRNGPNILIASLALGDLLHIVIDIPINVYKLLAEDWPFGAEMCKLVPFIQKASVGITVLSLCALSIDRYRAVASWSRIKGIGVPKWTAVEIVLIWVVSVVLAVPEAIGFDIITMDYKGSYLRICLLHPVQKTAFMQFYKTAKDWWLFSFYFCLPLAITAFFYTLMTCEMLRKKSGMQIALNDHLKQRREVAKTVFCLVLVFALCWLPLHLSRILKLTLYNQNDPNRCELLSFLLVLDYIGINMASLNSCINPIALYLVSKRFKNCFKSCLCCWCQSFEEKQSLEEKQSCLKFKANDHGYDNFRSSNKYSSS
Procedure: as §1

168 GPCRs [7] = target: 168 GPCRs (Homo sapiens, UniProt Q8TCW9); experiment: as above; assay type: cell-based; set-up: host or cells: PathHunter cell lines
Procedure: as §1

5HT2C receptor = target: T3, 5HT2C receptor (Homo sapiens, UniProt P28335); experiment: GPCRmax screen, agonist mode; assay type: cell-based
T3 construct: beta-galactosidase enzyme fragment (PathHunter complementation tag); host or cells: PathHunter cell lines
T3 sequence (P28335 33-458): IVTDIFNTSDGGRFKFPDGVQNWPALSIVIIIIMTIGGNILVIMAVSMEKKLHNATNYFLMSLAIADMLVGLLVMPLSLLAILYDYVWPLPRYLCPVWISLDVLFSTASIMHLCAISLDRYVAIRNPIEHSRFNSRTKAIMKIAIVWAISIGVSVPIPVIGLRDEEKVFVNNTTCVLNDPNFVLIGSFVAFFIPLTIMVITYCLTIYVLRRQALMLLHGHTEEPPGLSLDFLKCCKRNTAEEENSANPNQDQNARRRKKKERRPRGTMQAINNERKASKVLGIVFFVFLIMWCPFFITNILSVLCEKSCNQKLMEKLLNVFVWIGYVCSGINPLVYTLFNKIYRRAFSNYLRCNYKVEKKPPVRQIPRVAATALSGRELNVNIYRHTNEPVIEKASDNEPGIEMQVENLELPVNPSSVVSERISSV

Sequence of 168 GPCRs (Homo sapiens, UniProt Q8TCW9) (Q8TCW9 whole entry): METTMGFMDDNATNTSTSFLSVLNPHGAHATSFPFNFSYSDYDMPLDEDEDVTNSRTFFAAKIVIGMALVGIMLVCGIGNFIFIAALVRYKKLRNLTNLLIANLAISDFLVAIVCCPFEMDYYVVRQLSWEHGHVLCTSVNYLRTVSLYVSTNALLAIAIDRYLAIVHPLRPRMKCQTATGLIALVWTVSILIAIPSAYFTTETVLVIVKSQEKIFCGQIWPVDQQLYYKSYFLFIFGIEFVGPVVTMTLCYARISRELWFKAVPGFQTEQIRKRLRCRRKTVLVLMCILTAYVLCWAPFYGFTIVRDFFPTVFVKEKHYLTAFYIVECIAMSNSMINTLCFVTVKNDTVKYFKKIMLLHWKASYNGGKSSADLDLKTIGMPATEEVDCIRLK
Sequence of 168 GPCRs (Homo sapiens, UniProt P21462) (P21462 whole entry): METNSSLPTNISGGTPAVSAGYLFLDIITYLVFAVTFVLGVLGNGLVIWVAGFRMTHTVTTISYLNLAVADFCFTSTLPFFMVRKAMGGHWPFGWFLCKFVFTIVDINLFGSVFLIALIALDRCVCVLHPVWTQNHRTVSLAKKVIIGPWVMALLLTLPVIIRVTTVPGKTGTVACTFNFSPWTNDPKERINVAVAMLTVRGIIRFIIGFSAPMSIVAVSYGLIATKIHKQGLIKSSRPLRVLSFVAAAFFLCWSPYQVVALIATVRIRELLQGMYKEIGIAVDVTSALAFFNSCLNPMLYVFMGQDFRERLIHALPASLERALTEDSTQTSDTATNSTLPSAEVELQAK
Sequence of 168 GPCRs (Homo sapiens, UniProt P51684) (P51684 whole entry): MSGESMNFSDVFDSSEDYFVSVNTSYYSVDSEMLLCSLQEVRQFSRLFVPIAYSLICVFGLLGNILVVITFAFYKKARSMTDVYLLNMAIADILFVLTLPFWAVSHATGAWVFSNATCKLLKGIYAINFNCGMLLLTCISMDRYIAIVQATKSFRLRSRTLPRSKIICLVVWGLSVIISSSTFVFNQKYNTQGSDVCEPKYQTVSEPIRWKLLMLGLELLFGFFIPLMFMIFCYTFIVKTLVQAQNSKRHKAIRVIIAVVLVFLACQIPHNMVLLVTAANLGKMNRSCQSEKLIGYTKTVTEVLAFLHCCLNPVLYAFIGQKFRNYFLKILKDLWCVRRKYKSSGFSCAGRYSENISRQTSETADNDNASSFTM
Sequence of 168 GPCRs (Homo sapiens, UniProt P32745) (P32745 whole entry): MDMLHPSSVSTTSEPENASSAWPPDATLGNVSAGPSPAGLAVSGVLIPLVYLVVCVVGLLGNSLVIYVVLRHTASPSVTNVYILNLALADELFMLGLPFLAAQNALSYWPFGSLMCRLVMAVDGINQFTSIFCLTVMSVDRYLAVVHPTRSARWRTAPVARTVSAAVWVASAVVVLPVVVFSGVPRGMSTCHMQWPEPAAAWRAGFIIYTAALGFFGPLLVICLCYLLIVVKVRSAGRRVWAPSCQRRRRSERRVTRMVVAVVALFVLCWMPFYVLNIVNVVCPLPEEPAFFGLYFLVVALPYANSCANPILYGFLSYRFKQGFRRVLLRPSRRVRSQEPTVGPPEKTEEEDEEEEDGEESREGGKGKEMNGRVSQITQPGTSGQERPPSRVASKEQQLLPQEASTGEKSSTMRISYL

Compound: CNC(C)C(=O)c1ccc2c(c1)OCO2 (stereo not shown) [methylone, 3,4-methylenedioxy-N-methylcathinone]
- paw withdrawal thresholds (von Frey) [1]: significantly increased paw withdrawal thresholds
- activity at 1 µM (168 GPCRs [2]; 1 uM): -2.9%
- activity at 10 µM (168 GPCRs [2]; 10 uM): -3.3%
- activity at 10 µM (168 GPCRs [3]; F2RL3, Agonist mode, 10 uM): 7%
- activity at 1 µM (168 GPCRs [3]; F2RL3, Agonist, 1 uM): 4.3%
- activity at 10 µM (168 GPCRs [4]; SSTR3, Agonist mode, 10 uM): 0.3%
- activity at 1 µM (168 GPCRs [4]; SSTR3, Agonist, 1 uM): 0.7%
- activity at 10 µM (168 GPCRs [5]; FPR1, Agonist mode, 10 uM): 0.5%
- activity at 1 µM (168 GPCRs [5]; FPR1, Agonist, 1 uM): 2.2%
- activity at 10 µM (168 GPCRs [6]; Agonist mode, 10 uM): -0.1%
- activity at 1 µM (168 GPCRs [6]; Agonist, 1 uM): 0.7%
- activity at 10 µM (168 GPCRs [7]; PROKR1, Agonist mode, 10 uM): -2.8%
- activity at 1 µM (168 GPCRs [7]; PROKR1, Agonist, 1 uM): -1.3%
- agonist % activity (5HT2C receptor; 1 or 10 mM, threshold 30%): no agonist or antagonist activity
- activity at 10 µM (5HT2C receptor; HTR2C, Agonist mode, 10 uM): 3.7%
- activity at 1 µM (5HT2C receptor; HTR2C, Agonist, 1 uM): 1.4%
